Results published in BigSolDB 2.1.

CNC[C@H](O)c1cccc(O)c1.Cl
solubility (mole fraction)
Conditions | in 2-butoxyethanol | in 2-ethoxyethanol | in 2-methoxyethanol | in 2-propoxyethanol | in DMF | in NMP | in ethanol | in isopropanol | in methanol | in n-propanol
278.15 K | 0.00496 | 0.0254 | 0.114 | 0.00782 | 0.185 | 0.154 | 0.0138 | 0.00201 | 0.0715 | 0.00469
283.15 K | 0.00611 | 0.0305 | 0.122 | 0.01 | 0.198 | 0.161 | 0.0168 | 0.00251 | 0.0811 | 0.00586
288.15 K | 0.00811 | 0.0386 | 0.131 | 0.0132 | 0.21 | 0.169 | 0.0195 | 0.00335 | 0.09 | 0.00728
293.15 K | 0.0102 | 0.0465 | 0.14 | 0.0162 | 0.222 | 0.178 | 0.0233 | 0.00409 | 0.101 | 0.00905
298.15 K | 0.0126 | 0.0553 | 0.147 | 0.0195 | 0.236 | 0.186 | 0.0287 | 0.00492 | 0.111 | 0.0107
303.15 K | 0.016 | 0.0654 | 0.161 | 0.0244 | 0.251 | 0.198 | 0.034 | 0.0062 | 0.123 | 0.0133
308.15 K | 0.0195 | 0.0761 | 0.171 | 0.0304 | 0.265 | 0.208 | 0.0404 | 0.00768 | 0.136 | 0.0163
313.15 K | 0.0248 | 0.0903 | 0.183 | 0.0376 | 0.284 | 0.22 | 0.047 | 0.00931 | 0.15 | 0.0196
318.15 K | 0.0306 | 0.106 | 0.195 | 0.0462 | 0.299 | 0.232 | 0.0554 | 0.0113 | 0.165 | 0.0236
323.15 K | 0.0372 | 0.122 | 0.21 | 0.0566 | 0.315 | 0.246 | 0.0654 | 0.0138 | 0.182 | 0.0282
